Our source for the LD50 and MIC values is patent US4431804A, “Thiazolylacetamido compounds” (Hoffmann-La Roche Inc., priority 1981, dated 1984).

Structures can show the parent of a compound that is named as a salt.

A short description of one data set: Toxicity (LD50). Conditions: in vivo. The source says:
Toxicity of the trisodium salt of (6R,7R)-7-[(Z)-2-(2-amino-4-[…])-2-[(1-carboxy-1-methylethoxy)imino]acetamido]-3-[[(2,5-dihydro-6-hydroxy-2-methyl-5-oxo-as-triazin-3-yl)thio]methyl]-8-oxo-5-thia-1-azabicyclo[4.2.0]oct-2-ene-2-carboxylic acid: […]

A further data set has as its system Pseudomonas aeruginosa. Description: in vitro activity against 15 strains of Pseudomonas aeruginosa (minimum inhibitory concentration). The data set is classed as cell-based. The source says:
Results (as MIC=minimum inhibitory concentration in μg/ml): […]

By LD50 is commonly meant the dose expected to kill half of the subjects tested. Low values mean a more toxic substance, high ones a less toxic substance. Broadly, the MIC is the lowest concentration found to suppress growth. Low readings indicate greater potency, high ones weaker potency. Take `Cn1nc(O)c(=O)nc1SCC1=C(C(=O)O)N2C(=O)[C@@H](NC(=O)/C(=N\OC(C)(C)C(=O)O)c3csc(N)n3)[C@H]2SC1` [Example 1, trisodium salt of (6R,7R)-7-[(Z)-2-(2-amino-4-thiazolyl)-2-[(1-carboxy-1-methylethoxy)imino]acetamido]-3-[[(2,5-dihydro-6-hydroxy-2-methyl-5-oxo-as-triazin-3-yl)thio]methyl]-8-oxo-5-thia-1-azabicyclo[4.2.0]oct-2-ene-2-carboxylic acid]: the LD50 in “Toxicity (LD50)” (iv) is greater than 1000 mg/kg; in the data set “Toxicity (LD50)” (po), greater than 4000 mg/kg; in the data set “Toxicity (LD50)” (sc) it was greater than 4000 mg/kg. The MIC against Pseudomonas aeruginosa (P. aeruginosa strain 1, in vitro) stood at 6.3 µg/mL; with Pseudomonas aeruginosa (P. aeruginosa strain 2, in vitro), 1.6 µg/mL; with Pseudomonas aeruginosa (P. aeruginosa strain 3, in vitro) it was 1.6 µg/mL; against Pseudomonas aeruginosa (P. aeruginosa strain 4, in vitro), 1.6 µg/mL; with Pseudomonas aeruginosa (P. aeruginosa strain 5, in vitro), 1.6 µg/mL; with Pseudomonas aeruginosa (P. aeruginosa strain 6, in vitro), 1.6 µg/mL. Further, the MIC in the data set on Pseudomonas aeruginosa (P. aeruginosa strain 7, in vitro) worked out at 1.6 µg/mL; against Pseudomonas aeruginosa (P. aeruginosa strain 8, in vitro), 25 µg/mL; in the data set on Pseudomonas aeruginosa (P. aeruginosa strain 9, in vitro) it was 3.1 µg/mL; in the data set on Pseudomonas aeruginosa (P. aeruginosa strain 10, in vitro) it was 1.6 µg/mL; in the data set with Pseudomonas aeruginosa (P. aeruginosa strain 11, in vitro) it was 0.8 µg/mL; with Pseudomonas aeruginosa (P. aeruginosa strain 12, in vitro) it was 1.6 µg/mL. For the same compound, the MIC is 1.6 µg/mL against Pseudomonas aeruginosa (P. aeruginosa strain 13, in vitro); 1.6 µg/mL in the data set on Pseudomonas aeruginosa (P. aeruginosa strain 14, in vitro); 1.6 µg/mL in the data set with Pseudomonas aeruginosa (P. aeruginosa strain 15, in vitro).
